Reference: ChEMBL document CHEMBL2424519, “DABCO-promoted one-pot synthesis of heteroaryl-substituted benzenes and their biological evaluation” (2013)
≈ marks a conversion by molar mass, not a printed value. Calls of active or inactive are those of the source. The calls are words filed in the database; no cut-off is given here.

Legend:
[1] = test system: Mycobacterium tuberculosis; assay: Antitubercular activity against Mycobacterium tuberculosis H37Rv at 100 ug/ml after 4 weeks by Lowenstein-Jensen medium method; assay type: functional, organism-based
Aspergillus flavus [2] = assay: Antifungal activity against Aspergillus flavus at 10 mg/ml after 7 days by disc diffusion technique; assay type: functional; settings: 168 h, read-out: IZ
Klebsiella pneumoniae [3] = assay: Antibacterial activity against Klebsiella pneumoniae after 24 hrs by agar-diffusion technique; assay type: functional
Aspergillus niger [4] = assay: Antifungal activity against Aspergillus niger after 7 days by disc diffusion technique; assay type: functional; settings: 168 h
Candida albicans [5] = assay: Antifungal activity against Candida albicans at 10 mg/ml after 7 days by disc diffusion technique; assay type: functional; settings: 168 h, read-out: IZ
Escherichia coli [6] = assay: Antibacterial activity against Escherichia coli after 24 hrs by agar-diffusion technique; assay type: functional
Pseudomonas aeruginosa [7] = assay: Antibacterial activity against Pseudomonas aeruginosa after 24 hrs by agar-diffusion technique; assay type: functional
Aspergillus niger [8] = assay: Antifungal activity against Aspergillus niger at 10 mg/ml after 7 days by disc diffusion technique; assay type: functional; settings: 168 h, read-out: IZ
Aspergillus flavus [9] = assay: Antifungal activity against Aspergillus flavus after 7 days by disc diffusion technique; assay type: functional; settings: 168 h
Escherichia coli [10] = assay: Antibacterial activity against Escherichia coli at 10 mg/ml after 24 hrs by agar-diffusion technique; assay type: functional; settings: read-out: IZ
Candida tropicalis [11] = assay: Antifungal activity against Candida tropicalis at 10 mg/ml after 7 days by disc diffusion technique; assay type: functional; settings: 168 h, read-out: IZ
Pseudomonas aeruginosa [12] = assay: Antibacterial activity against Pseudomonas aeruginosa at 10 mg/ml after 24 hrs by agar-diffusion technique; assay type: functional; settings: read-out: IZ
Candida albicans [13] = assay: Antifungal activity against Candida albicans after 7 days by disc diffusion technique; assay type: functional; settings: 168 h
Candida tropicalis [14] = assay: Antifungal activity against Candida tropicalis after 7 days by disc diffusion technique; assay type: functional; settings: 168 h
Salmonella typhi [15] = assay: Antibacterial activity against Salmonella typhi at 10 mg/ml after 24 hrs by agar-diffusion technique; assay type: functional, Salmonella enterica subsp. enterica serovar Typhi; settings: Salmonella enterica, read-out: IZ
Salmonella typhi [16] = assay: Antibacterial activity against Salmonella typhi after 24 hrs by agar-diffusion technique; assay type: functional, Salmonella enterica subsp. enterica serovar Typhi; settings: Salmonella enterica
[17] = test system: Mycobacterium tuberculosis; assay: Antitubercular activity against Mycobacterium tuberculosis H37Rv at 10 ug/ml after 4 weeks by Lowenstein-Jensen medium method; assay type: functional, organism-based
Klebsiella pneumoniae [18] = assay: Antibacterial activity against Klebsiella pneumoniae at 10 mg/ml after 24 hrs by agar-diffusion technique; assay type: functional; settings: read-out: IZ
[19] = test system: Mycobacterium tuberculosis; assay: Antitubercular activity against Mycobacterium tuberculosis H37Rv at 1 ug/ml after 4 weeks by Lowenstein-Jensen medium method; assay type: functional, organism-based

Structure (SMILES): N#Cc1c(-c2ccccc2)cc(-c2cccs2)c([N+](=O)[O-])c1N
- Activity [1]: Active
- zone of inhibition at 10000 µg/mL (Aspergillus flavus [2]): 12 mm
- MIC (Klebsiella pneumoniae [3]): 20 µg/mL (≈ 62.2 µM)
- MIC (Aspergillus niger [4]): 20 µg/mL (≈ 62.2 µM)
- zone of inhibition at 10000 µg/mL (Candida albicans [5]): 24 mm
- MIC (Escherichia coli [6]): 20 µg/mL (≈ 62.2 µM)
- MIC (Pseudomonas aeruginosa [7]): 20 µg/mL (≈ 62.2 µM)
- zone of inhibition at 10000 µg/mL (Aspergillus niger [8]): 15 mm
- MIC (Aspergillus flavus [9]): 20 µg/mL (≈ 62.2 µM)
- zone of inhibition at 10000 µg/mL (Escherichia coli [10]): 12 mm
- zone of inhibition at 10000 µg/mL (Candida tropicalis [11]): 21 mm
- zone of inhibition at 10000 µg/mL (Pseudomonas aeruginosa [12]): 10 mm
- MIC (Candida albicans [13]): 20 µg/mL (≈ 62.2 µM)
- MIC (Candida tropicalis [14]): 20 µg/mL (≈ 62.2 µM)
- zone of inhibition at 10000 µg/mL (Salmonella typhi [15]): 9 mm
- MIC (Salmonella typhi [16]): 20 µg/mL (≈ 62.2 µM)
- Activity [17]: Active
- zone of inhibition at 10000 µg/mL (Klebsiella pneumoniae [18]): 8 mm
- Activity [19]: Active

Structure (SMILES): CCOC(=O)c1c(-c2ccc(OC)cc2)cc(-c2cccs2)c([N+](=O)[O-])c1N
- Activity [1]: Active
- zone of inhibition at 10000 µg/mL (Aspergillus flavus [2]): 14 mm
- MIC (Klebsiella pneumoniae [3]): 20 µg/mL (≈ 50.2 µM)
- MIC (Aspergillus niger [4]): 20 µg/mL (≈ 50.2 µM)
- zone of inhibition at 10000 µg/mL (Candida albicans [5]): 16 mm
- MIC (Escherichia coli [6]): 20 µg/mL (≈ 50.2 µM)
- MIC (Pseudomonas aeruginosa [7]): 20 µg/mL (≈ 50.2 µM)
- zone of inhibition at 10000 µg/mL (Aspergillus niger [8]): 18 mm
- MIC (Aspergillus flavus [9]): 20 µg/mL (≈ 50.2 µM)
- zone of inhibition at 10000 µg/mL (Escherichia coli [10]): 14 mm
- zone of inhibition at 10000 µg/mL (Candida tropicalis [11]): 42 mm
- zone of inhibition at 10000 µg/mL (Pseudomonas aeruginosa [12]): 18 mm
- MIC (Candida albicans [13]): 20 µg/mL (≈ 50.2 µM)
- MIC (Candida tropicalis [14]): 20 µg/mL (≈ 50.2 µM)
- zone of inhibition at 10000 µg/mL (Salmonella typhi [15]): 16 mm
- MIC (Salmonella typhi [16]): 20 µg/mL (≈ 50.2 µM)
- Activity [17]: Active
- zone of inhibition at 10000 µg/mL (Klebsiella pneumoniae [18]): 20 mm
- Activity [19]: Active

Structure (SMILES): CCOC(=O)c1c(-c2ccc(OC)cc2)cc(-c2ccco2)c([N+](=O)[O-])c1N
- Activity [1]: Active
- zone of inhibition at 10000 µg/mL (Aspergillus flavus [2]): 9 mm
- MIC (Klebsiella pneumoniae [3]): 20 µg/mL (≈ 52.3 µM)
- MIC (Aspergillus niger [4]): 20 µg/mL (≈ 52.3 µM)
- zone of inhibition at 10000 µg/mL (Candida albicans [5]): 7 mm
- MIC (Escherichia coli [6]): 20 µg/mL (≈ 52.3 µM)
- MIC (Pseudomonas aeruginosa [7]): 20 µg/mL (≈ 52.3 µM)
- zone of inhibition at 10000 µg/mL (Aspergillus niger [8]): 10 mm
- MIC (Aspergillus flavus [9]): 20 µg/mL (≈ 52.3 µM)
- zone of inhibition at 10000 µg/mL (Escherichia coli [10]): 10 mm
- zone of inhibition at 10000 µg/mL (Candida tropicalis [11]): 8 mm
- zone of inhibition at 10000 µg/mL (Pseudomonas aeruginosa [12]): 8 mm
- MIC (Candida albicans [13]): 20 µg/mL (≈ 52.3 µM)
- MIC (Candida tropicalis [14]): 20 µg/mL (≈ 52.3 µM)
- zone of inhibition at 10000 µg/mL (Salmonella typhi [15]): 7 mm
- MIC (Salmonella typhi [16]): 20 µg/mL (≈ 52.3 µM)
- Activity [17]: Active
- zone of inhibition at 10000 µg/mL (Klebsiella pneumoniae [18]): 9 mm
- Activity [19]: Active

Structure (SMILES): N#Cc1c(-c2ccccc2)cc(-c2ccc[nH]2)c([N+](=O)[O-])c1N
- Activity [1]: Active
- zone of inhibition at 10000 µg/mL (Aspergillus flavus [2]): 16 mm
- MIC (Klebsiella pneumoniae [3]): 20 µg/mL (≈ 65.7 µM)
- MIC (Aspergillus niger [4]): 20 µg/mL (≈ 65.7 µM)
- zone of inhibition at 10000 µg/mL (Candida albicans [5]): 18 mm
- MIC (Escherichia coli [6]): 20 µg/mL (≈ 65.7 µM)
- MIC (Pseudomonas aeruginosa [7]): 20 µg/mL (≈ 65.7 µM)
- zone of inhibition at 10000 µg/mL (Aspergillus niger [8]): 20 mm
- MIC (Aspergillus flavus [9]): 20 µg/mL (≈ 65.7 µM)
- zone of inhibition at 10000 µg/mL (Escherichia coli [10]): 14 mm
- zone of inhibition at 10000 µg/mL (Candida tropicalis [11]): 12 mm
- zone of inhibition at 10000 µg/mL (Pseudomonas aeruginosa [12]): 16 mm
- MIC (Candida albicans [13]): 20 µg/mL (≈ 65.7 µM)
- MIC (Candida tropicalis [14]): 20 µg/mL (≈ 65.7 µM)
- zone of inhibition at 10000 µg/mL (Salmonella typhi [15]): 24 mm
- MIC (Salmonella typhi [16]): 20 µg/mL (≈ 65.7 µM)
- Activity [17]: Active
- zone of inhibition at 10000 µg/mL (Klebsiella pneumoniae [18]): 18 mm
- Activity [19]: Active

Structure (SMILES): CCOC(=O)c1c(-c2ccc(OC)cc2)cc(-c2ccc[nH]2)c([N+](=O)[O-])c1N
- Activity [1]: Active
- zone of inhibition at 10000 µg/mL (Aspergillus flavus [2]): 12 mm
- MIC (Klebsiella pneumoniae [3]): 20 µg/mL (≈ 52.4 µM)
- MIC (Aspergillus niger [4]): 20 µg/mL (≈ 52.4 µM)
- zone of inhibition at 10000 µg/mL (Candida albicans [5]): 9 mm
- MIC (Escherichia coli [6]): 20 µg/mL (≈ 52.4 µM)
- MIC (Pseudomonas aeruginosa [7]): 20 µg/mL (≈ 52.4 µM)
- zone of inhibition at 10000 µg/mL (Aspergillus niger [8]): 10 mm
- MIC (Aspergillus flavus [9]): 20 µg/mL (≈ 52.4 µM)
- zone of inhibition at 10000 µg/mL (Escherichia coli [10]): 10 mm
- zone of inhibition at 10000 µg/mL (Candida tropicalis [11]): 10 mm
- zone of inhibition at 10000 µg/mL (Pseudomonas aeruginosa [12]): 12 mm
- MIC (Candida albicans [13]): 20 µg/mL (≈ 52.4 µM)
- MIC (Candida tropicalis [14]): 20 µg/mL (≈ 52.4 µM)
- zone of inhibition at 10000 µg/mL (Salmonella typhi [15]): 14 mm
- MIC (Salmonella typhi [16]): 20 µg/mL (≈ 52.4 µM)
- Activity [17]: Active
- zone of inhibition at 10000 µg/mL (Klebsiella pneumoniae [18]): 16 mm
- Activity [19]: Active

Structure (SMILES): N#Cc1c(-c2ccccc2)cc(-c2ccco2)c([N+](=O)[O-])c1N
- Activity [1]: Active
- zone of inhibition at 10000 µg/mL (Aspergillus flavus [2]): 14 mm
- MIC (Klebsiella pneumoniae [3]): 20 µg/mL (≈ 65.5 µM)
- MIC (Aspergillus niger [4]): 20 µg/mL (≈ 65.5 µM)
- zone of inhibition at 10000 µg/mL (Candida albicans [5]): 10 mm
- MIC (Escherichia coli [6]): 20 µg/mL (≈ 65.5 µM)
- MIC (Pseudomonas aeruginosa [7]): 20 µg/mL (≈ 65.5 µM)
- zone of inhibition at 10000 µg/mL (Aspergillus niger [8]): 8 mm
- MIC (Aspergillus flavus [9]): 20 µg/mL (≈ 65.5 µM)
- zone of inhibition at 10000 µg/mL (Escherichia coli [10]): 17 mm
- zone of inhibition at 10000 µg/mL (Candida tropicalis [11]): 8 mm
- zone of inhibition at 10000 µg/mL (Pseudomonas aeruginosa [12]): 14 mm
- MIC (Candida albicans [13]): 20 µg/mL (≈ 65.5 µM)
- MIC (Candida tropicalis [14]): 20 µg/mL (≈ 65.5 µM)
- zone of inhibition at 10000 µg/mL (Salmonella typhi [15]): 16 mm
- MIC (Salmonella typhi [16]): 20 µg/mL (≈ 65.5 µM)
- Activity [17]: Active
- zone of inhibition at 10000 µg/mL (Klebsiella pneumoniae [18]): 12 mm
- Activity [19]: Active

Structure (SMILES): O=C(O)c1cn(C2CC2)c2cc(N3CCNCC3)c(F)cc2c1=O [CIPROFLOXACIN]
- zone of inhibition at 10000 µg/mL (Pseudomonas aeruginosa [12]): 23 mm
- zone of inhibition at 10000 µg/mL (Salmonella typhi [15]): 24 mm
- zone of inhibition at 10000 µg/mL (Klebsiella pneumoniae [18]): 22 mm

Structure (SMILES): Clc1ccccc1C(c1ccccc1)(c1ccccc1)n1ccnc1 [CLOTRIMAZOLE]
- zone of inhibition at 10000 µg/mL (Aspergillus flavus [2]): 19 mm
- zone of inhibition at 10000 µg/mL (Candida albicans [5]): 20 mm
- zone of inhibition at 10000 µg/mL (Aspergillus niger [8]): 23 mm
- zone of inhibition at 10000 µg/mL (Candida tropicalis [11]): 21 mm

Structure (SMILES): NC(=O)c1cnccn1
- Activity [1]: Active
- Activity [17]: Active
- Activity [19]: Active
